Holding throughout (test): In vitro competitive activity-based protein profiling (gel-based, FP-Rh or HT-01 probe)
What all share (assay type): biochemical

One assay concerns the target T1, ABHD6 (Mus musculus, UniProt Q8R2Y0).
T1 construct: Proteomes (mouse brain membrane fraction or cell lysates); from tissue; host or cells: mouse brain membrane fraction (or cell lysates, not specified)
T1 sequence (Q8R2Y0 1-336): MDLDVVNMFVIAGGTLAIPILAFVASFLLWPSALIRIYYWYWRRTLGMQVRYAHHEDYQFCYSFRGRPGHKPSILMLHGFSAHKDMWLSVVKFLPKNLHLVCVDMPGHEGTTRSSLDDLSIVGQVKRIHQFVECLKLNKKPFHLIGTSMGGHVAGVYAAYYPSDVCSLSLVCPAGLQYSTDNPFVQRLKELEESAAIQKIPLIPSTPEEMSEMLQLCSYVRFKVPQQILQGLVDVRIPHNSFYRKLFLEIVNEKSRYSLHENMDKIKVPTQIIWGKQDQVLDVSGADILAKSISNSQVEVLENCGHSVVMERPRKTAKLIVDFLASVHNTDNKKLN
The note with it: for inhibition at 1 µM: 1 μM inhibitor, read-out: % Inhibition at 1 μM, C = ABHD6; for inhibition at 10 µM: 10 μM inhibitor, read-out: % Inhibition at 10 μM, C = ABHD6; for IC50: mouse brain membrane fraction or cell lysates, 30 min preincubation at 37° C., read-out: Mouse (IC50 value, nM) ABHD6. The method in brief:
(§1)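 Gel-based read-out: fluorescent band intensity after SDS-PAGE reflected remaining hydrolase activity. Inhibitors were preincubated 30 min at 37° C with 1.0 mg/mL mouse brain membrane or lysate proteome before a further 30 min at 37° C with FP-Rh or HT-01 probe.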

Another assay concerns the target T2, FAAH (Mus musculus, UniProt O08914).
T2 construct: Proteomes (mouse brain membrane fraction or cell lysates); from tissue; host or cells: mouse brain membrane fraction (or cell lysates, not specified)
T2 sequence (O08914 1-579): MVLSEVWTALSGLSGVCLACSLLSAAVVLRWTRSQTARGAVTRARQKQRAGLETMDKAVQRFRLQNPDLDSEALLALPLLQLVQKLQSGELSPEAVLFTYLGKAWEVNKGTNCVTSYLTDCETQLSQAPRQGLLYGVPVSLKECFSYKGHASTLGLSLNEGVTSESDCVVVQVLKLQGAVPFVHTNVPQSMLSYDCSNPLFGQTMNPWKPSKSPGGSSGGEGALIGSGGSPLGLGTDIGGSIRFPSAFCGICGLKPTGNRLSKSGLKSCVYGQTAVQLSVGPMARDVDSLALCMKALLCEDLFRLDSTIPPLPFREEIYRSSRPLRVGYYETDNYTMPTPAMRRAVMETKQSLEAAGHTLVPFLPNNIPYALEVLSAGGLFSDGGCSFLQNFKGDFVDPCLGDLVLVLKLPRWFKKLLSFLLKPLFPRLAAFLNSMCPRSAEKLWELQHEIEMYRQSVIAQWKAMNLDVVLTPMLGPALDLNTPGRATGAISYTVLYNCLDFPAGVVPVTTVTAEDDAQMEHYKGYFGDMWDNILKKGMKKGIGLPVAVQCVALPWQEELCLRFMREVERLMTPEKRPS
To be noted: for inhibition at 1 µM: 1 μM inhibitor, read-out: % Inhibition at 1 μM, B = FAAH; for inhibition at 10 µM: 10 μM inhibitor, read-out: % Inhibition at 10 μM, B = FAAH; for IC50: mouse brain membrane fraction or cell lysates, 30 min preincubation at 37° C., read-out: Mouse (IC50 value, nM) FAAH. Put shortly:
as §1

Another assay deals with T3, MAGL (Mus musculus, UniProt O35678).
T3 construct: Proteomes (mouse brain membrane fraction or cell lysates); from tissue; host or cells: mouse brain membrane fraction (or cell lysates, not specified)
T3 sequence (O35678 1-303): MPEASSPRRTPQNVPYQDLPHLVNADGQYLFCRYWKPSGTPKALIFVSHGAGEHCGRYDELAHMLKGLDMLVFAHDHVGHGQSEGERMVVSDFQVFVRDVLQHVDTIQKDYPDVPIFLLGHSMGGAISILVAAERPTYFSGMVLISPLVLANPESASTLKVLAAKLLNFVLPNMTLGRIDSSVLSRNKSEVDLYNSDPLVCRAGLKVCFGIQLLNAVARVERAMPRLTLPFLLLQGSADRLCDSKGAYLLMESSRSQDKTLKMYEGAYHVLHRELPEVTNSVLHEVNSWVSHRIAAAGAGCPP
To be noted: for inhibition at 1 µM: 1 μM inhibitor; for inhibition at 10 µM: 10 μM inhibitor; for IC50: mouse brain membrane fraction or cell lysates, 30 min preincubation at 37° C., read-out: Mouse (IC50 value, nM) MAGL. Put shortly: as §1

A further assay has as its target T4, PLA2G7 (Mus musculus, UniProt Q60963).
T4 construct: Proteomes (mouse brain membrane fraction or cell lysates); from tissue; host or cells: mouse brain membrane fraction (or cell lysates, not specified)
T4 sequence (Q60963 22-440): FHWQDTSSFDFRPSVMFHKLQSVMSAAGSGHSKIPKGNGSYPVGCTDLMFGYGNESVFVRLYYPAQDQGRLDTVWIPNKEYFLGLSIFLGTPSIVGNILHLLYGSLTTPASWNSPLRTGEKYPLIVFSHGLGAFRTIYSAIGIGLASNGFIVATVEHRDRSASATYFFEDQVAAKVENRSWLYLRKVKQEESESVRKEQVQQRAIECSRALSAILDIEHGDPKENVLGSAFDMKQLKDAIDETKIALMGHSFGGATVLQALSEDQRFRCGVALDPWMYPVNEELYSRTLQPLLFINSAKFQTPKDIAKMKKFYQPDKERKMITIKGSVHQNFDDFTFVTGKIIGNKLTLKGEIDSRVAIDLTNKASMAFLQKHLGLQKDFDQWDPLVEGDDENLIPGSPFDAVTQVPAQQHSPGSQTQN
To be noted: for inhibition at 1 µM: 1 μM inhibitor, read-out: % Inhibition at 1 μM, D = PLA2G7; for inhibition at 10 µM: 10 μM inhibitor, read-out: % Inhibition at 10 μM, D = PLA2G7; for IC50: mouse brain membrane fraction or cell lysates, 30 min preincubation at 37° C. The method in brief: as §1

Among the data in US10093630B2, “Pyrazole compounds and methods of making and using same” (ABIDE THERAPEUTICS, INC., priority 2014, dated 2018) are inhibition and IC50 values, retold here.

Where two headings read alike, the source gives them in different places.

For `COc1cc(-c2ccccc2)ccc1CN1CCN(C(=O)n2cc(Cl)cn2)CC1` [Example 141, (4-Chloro-1H-pyrazol-1-yl)(4-((3-methoxybiphenyl-4-yl)methyl)piperazin-1-yl)methanone], the inhibition (usually the drop in the measured response relative to a control, in per cent) at 1 µM is over 75% at ABHD6, over 75% at FAAH, over 75% at MAGL and under 25% on PLA2G7. The inhibition at 10 µM on ABHD6, on FAAH, on MAGL and at PLA2G7 was over 75% throughout. The values for the half-inhibitory concentration (IC50) on ABHD6, at FAAH and on MAGL were 100 to 1000 nM, 100 to 1000 nM and under 100 nM, respectively.

As to `N#Cc1cnn(C(=O)NCc2ccc3ccccc3c2)c1` [Example 45, 4-Cyano-N-(naphthalen-2-ylmethyl)-1H-pyrazole-1-carboxamide], the inhibition at 1 µM at ABHD6, on FAAH, on MAGL and on PLA2G7 was under 25% each time. Further, the inhibition at 10 µM at ABHD6 was under 25%; at FAAH, over 75%; on MAGL, 25 to 75%; at PLA2G7, under 25%.

With `Cc1cccc(N2CCN(C(=O)n3cc(C(F)(F)F)cn3)CC2)c1` [Example 231, (4-m-Tolylpiperazin-1-yl)(4-(trifluoromethyl)-1H-pyrazol-1-yl)methanone], the inhibition at 1 µM on ABHD6, on FAAH, on MAGL and at PLA2G7 was over 75% each time. For the same compound, the inhibition at 10 µM on ABHD6, on FAAH, on MAGL and at PLA2G7 was over 75% each time.

For `Cc1cc(-c2ccccc2)ccc1CN1CCN(C(=O)n2cc(C(=O)N3CCCC3)cn2)CC1` [Example 85, (4-((3-Methyl-[1,1′-biphenyl]-4-yl)methyl)piperazin-1-yl)(4-(pyrrolidine-1-carbonyl)-1H-pyrazol-1-yl)methanone], the inhibition at 1 µM on ABHD6 was over 75%; on FAAH, over 75%; on MAGL, over 75%; at PLA2G7 it was under 25%. Also, the inhibition at 10 µM on ABHD6, on FAAH, at MAGL and at PLA2G7 was over 75% throughout. In addition, the IC50 (as a rule, the concentration that gives 50% inhibition) at ABHD6 is 100 to 1000 nM; at FAAH it was under 100 nM; at MAGL, 100 to 1000 nM.

`Cc1cc(N2CCN(C(=O)n3cc(C(F)(F)F)cn3)CC2)c2ccccc2n1` [Example 210, (4-(2-Methylquinolin-4-yl)piperazin-1-yl)(4-(trifluoromethyl)-1H-pyrazol-1-yl)methanone]: the inhibition at 1 µM was over 75% on ABHD6, over 75% on FAAH, over 75% on MAGL and 25 to 75% at PLA2G7. The inhibition at 10 µM at ABHD6, at FAAH, at MAGL and on PLA2G7 was over 75% each time. The IC50 at ABHD6 is 100 to 1000 nM; on FAAH it was over 1000 nM; at MAGL it was under 100 nM; on PLA2G7 it was under 100 nM.

For the compound `N#Cc1cnn(C(=O)N2CCN(Cc3ccc(C(=O)N4CCCCC4)cc3Cl)CC2)c1` [Example 282, 1-(4-(2-Chloro-4-(piperidine-1-carbonyl)benzyl)piperazine-1-carbonyl)-1H-pyrazole-4-carbonitrile], the inhibition at 1 µM on ABHD6 (gel-based competitive ABPP), at FAAH (gel-based competitive ABPP), on MAGL (gel-based competitive ABPP) and on PLA2G7 (gel-based competitive ABPP) was over 75% throughout. Also, the inhibition at 10 µM on ABHD6 (gel-based competitive ABPP), at FAAH (gel-based competitive ABPP), on MAGL (gel-based competitive ABPP) and on PLA2G7 (gel-based competitive ABPP) was over 75% throughout.

As to `CS(=O)(=O)N1CCN(C(=O)n2cc(C(F)(F)F)cn2)CC1` [Example 150, (4-(Methylsulfonyl)piperazin-1-yl)(4-(trifluoromethyl)-1H-pyrazol-1-yl)methanone], the inhibition at 1 µM at ABHD6 is over 75%; at FAAH, under 25%; at MAGL it was under 25%; at PLA2G7 it was over 75%. Moreover, the inhibition at 10 µM at ABHD6 was over 75%; on FAAH, 25 to 75%; at MAGL, 25 to 75%; on PLA2G7, over 75%.

`O=C(NCCCc1ccccc1)n1cccn1` [Example 31, N-(3-Phenylpropyl)-1H-pyrazole-1-carboxamide]: the inhibition at 10 µM on ABHD6, on FAAH, at MAGL and on PLA2G7 was under 25% each time.

As for `CC(=O)N(C)CCN(C)C(=O)n1cc(C)cn1` [Example 170, N,4-Dimethyl-N-(2-(N-methylacetamido)ethyl)-1H-pyrazole-1-carboxamide], the inhibition at 10 µM at ABHD6, on FAAH, on MAGL and at PLA2G7 was under 25% throughout.

Turning to `NC(=O)c1cnn(C(=O)N2CCN(Cc3cccc(Oc4ccccc4)c3)CC2)c1` [Example 286, 1-(4-(3-phenoxybenzyl)piperazine-1-carbonyl)-1H-pyrazole-4-carboxamide], the inhibition at 1 µM at ABHD6 (gel-based competitive ABPP) was over 75%; on FAAH (gel-based competitive ABPP) it was over 75%; at MAGL (gel-based competitive ABPP), over 75%; at PLA2G7 (gel-based competitive ABPP), 25 to 75%. Also, the IC50 was under 100 nM on ABHD6, under 100 nM at FAAH, under 100 nM at MAGL and 100 to 1000 nM at PLA2G7.
